# Patent publication US9012411B2, “Formulations from derivatives of curcumin, paclitaxel, and aspirin” (Organomed Corporation, priority 2009, dated 2015)
# Marks after values point to notes of the source that are not given here.
# Legend:
# [1] = In vitro enzyme hydrolysis in human serum (HPLC); assay type: in vitro ADME; conditions: 25% human serum; for Test compound Rate: rate of decomposition of test compound; for Test compound Concentration: remaining test compound
# Description: A 25% solution of human serum in 0.01M phosphate buffer was taken and the test compound (glucose aspirin or aspirin) were added to get a concentration of 0.2 mg/mL. The hydrolysis for the rate of release of salicylic acid and the rate of decomposition of the test compound were measured by HPLC.
# [2] = tested on: cancer cell lines SKBR3, Panc1, PC-3; assay: Cellular inhibition, Alamar Blue, cancer cell lines taken together; assay type: cell-based; conditions: 24 hours
# Description: (§1) Assays were performed with 3 cancer cell lines: breast (SKBR3), pancreatic (Panc1), prostate (PC-3) and 1 normal (nor-cancer) cell line (WI-38). Compounds were delivered to the cells after dissolving in DMSO. Five dilutions per compound were tested on a total of 4 cell lines in 96 well plates. Cellular inhibition was measured using Alamar Blue. After addition of compound a 24 hour and 48 hour time point using fluorescent plate reader was taken. Data from plate reader was analyzed in the following way: % inhibition bar graphs, % inhibition line graphs and IC50 growth inhibition values. In Tables 7-14, IC50 units are Molar (M).
# [3] = tested on: tail flick latency in rats; assay: Tail flick test (analgesic activity); assay type: in vivo, albino rats
# Description: Rats were screened for tail flip reaction with a cut-off time of 5 seconds. For each animal, the tail flick latency was obtained thrice before drug administration and mean was used as pre-drug latency. The tail flick latencies were measured at 0, 0.5, 1, 1.5, 2 and 3 h after administration chemicals.
# Albino rats obtained from central animal house of institute were used in the study. The animals were kept under 12 hour day night cycle. Animals were given standard diet and water was provided ad libitum. All animals were acclimatized for at least one week before the experimental session. […] Each group consisted of 4 animal each.
# Rats were screened for tail flip reaction with a cut-off time of 5 seconds. For each animal, the tail flick latency was obtained thrice before drug administration and mean was used as pre-drug latency. The tail flick latencies were measured at 0, 0.5, 1, 1.5, 2 and 3 h after administration of chemicals.
# Each group consisted of 8 animals each. […] Data were analyzed using analysis of variance (ANOVA) with Posthoc Bonferroni multi-comparisons. P<0.05 was considered as statistically significant.
# [4] = tested on: carrageenan induced rat paw edema; assay: Carrageenan induced rat paw edema; assay type: in vivo, albino rats; conditions: for Percent inhibition of paw edema (Std. Error): Example 9, 100 mg/kg oral with food
# Description: Animals were kept under 13 hour day night cycle. Animals were given standard diet and water was provided ad, libitum. All animals were acclimatized for at least one week before the experimental session. Animals were divided in to five groups. Each group consisted of 8 animals.
# Pedal inflammation in albino rats of either sex was produced according to the method of Winter et al., (Proc Soc Exp Biol Med 1963; 111: 544-7). An injection was made with 0.1 ml of 1% carrageenan (SIGMA) suspension into the right hind foot of each rat in the plantar region. […] Control group 5 was given 0.5 ml saline and groups 1 and 2 received aspirin. Increase in linear paw circumference was measured by tying a piece of cotton thread round the rat's paw, and noting the point of intersection of two ends on a meter scale. This was taken as an index of increase in paw volume, which is a measure of oedema (Bamgbose S O A, Noamesi B K. Planta Med 1981; 42: 392-6). Measurements were taken immediately before and at 1, 2 and 3 hours after carrageenan injection. The inhibitory activity was calculated according to the following formula (Awe S O, Olajide O A, Adeboye J O, Makinde J M. Indian J Pharmacol 1998; 30: 38-42):
# [formula] Ct-Linear paw circumference 3 hours after carrageenan injection and Co-Linear paw circumference before carrageenan injection.
# Albino rats obtained from central animal house of institute were used in the study. The animals were kept under 12 hour day night cycle. Animals were given standard diet and water was provided ad libitum. All animals were acclimatized for at least one week before the experimental session. Animals were divided into twelve groups in the carrageenan induced paw edema and tail flick method. Each group consisted of 4 animal each.
# Animals were divided into eight groups in the carrageenan induced paw edema and tail flick method. Each group consisted of 6 animal each. The groups received various chemicals as given in Table 16 by oral administration with food. The following methods were used to evaluate the activity of the compositions:
# Pedal inflammation in albino rats of either sex was produced according to the method of Winter et al. (Proc. Soc. Exp. Biol. Med., 1963, 111: 544-547). An injection was made with 0.1 ml of 1% carrageenan (SIGMA) suspension into the right hind foot of each rat in the plantar region. The various chemicals were given 30 minutes before carrageenan injection. Increase in linear paw circumference was measured by tying a piece of cotton thread round the rat's paw, and noting the point of intersection of two ends on a meter scale. This was taken as an index of increase in paw volume, which is a measure of edema (Bamgbose, S. O. A. & Noamesi, B. K., Planta. Med., 1981, 42: 392-396). Measurements were taken immediately before and at 1, 2 and 3 hours after carrageenan injection. The inhibitory activity was calculated according to the following formula (Awe S O, Olajide O A, Adeboye J O, Makinde J M. Indian J. Pharmacol., 1998; 30: 38-42):
# Animals were divided into six groups in the carrageenan induced paw edema and tail flick method. Each group consisted of 8 animals each. Carrageenan-induced rat paw edema and Tail flick test were performed as discussed above in Example 8. Data were analyzed using analysis of variance (ANOVA) with Posthoc Bonferroni multi-comparisons. P<0.05 was considered as statistically significant.
# [5] = water at 25° C.; Merck Index; cited from earlier work
# [6] = tested on: normal (non-cancer) cell line WI-38; assay: Cellular inhibition, Alamar Blue; assay type: cell-based; conditions: for IC50: Homo sapiens, WI-38
# Description: as §1
# [7] = tested on: breast (SKBR3) cancer cell line; assay: Cellular inhibition, Alamar Blue; assay type: cell-based; conditions: Homo sapiens, SK-BR-3
# Description: as §1
# [8] = tested on: prostate (PC-3) cancer cell line; assay: Cellular inhibition, Alamar Blue; assay type: cell-based
# Description: as §1
# [9] = tested on: pancreatic (Panc1) cancer cell line; assay: Cellular inhibition, Alamar Blue; assay type: cell-based; conditions: Homo sapiens, PANC-1
# Description: as §1
# PANC-1 cells [10] = assay: EC50 cytotoxicity, MTT assay, 48 hours; assay type: cell-based; conditions: Homo sapiens; PANC-1, 48 hours, 0.04 ng/ml to 400 ng/ml
# Description: (§2) Cytotoxicity of the compounds on three different cancer cell lines and one normal cell line was tested. Four human cell lines including both cancer cell lines (SK-BR-3, PANC-1, PC3) and normal cell line (W138) were initially employed. The cells (20,000 cells/well) were plated onto a 96-well plate for 24 hours before treatment. The compounds were diluted in the medium and added to the cells at different concentrations for additional 48 hours from 0.04 ng/ml to 400 ng/ml. MTT assay was then performed.
# PC3 cells [11] = assay: EC50 cytotoxicity, MTT assay, 48 hours; assay type: cell-based; conditions: Homo sapiens, PC-3; PC3, 48 hours, 0.04 ng/ml to 400 ng/ml
# Description: as §2
# SK-BR-3 cells [12] = assay: EC50 cytotoxicity, MTT assay, 48 hours; assay type: cell-based; conditions: Homo sapiens; SK-BR-3, 48 hours, 0.04 ng/ml to 400 ng/ml
# Description: as §2
# WI38 normal cell line [13] = assay: EC50 cytotoxicity, MTT assay, 48 hours; assay type: cell-based; conditions: Homo sapiens, WI-38; WI38, 48 hours, 0.04 ng/ml to 400 ng/ml
# Description: as §2
# PANC-1 cells [14] = assay: GI50 (50% inhibition of cell growth), MTT assay, 72 hours; assay type: cell-based; conditions: Homo sapiens, PANC-1, 72 h
# Description: (§3) The cells were plated onto a 96 well plate and treated with different concentrations of the compounds from 1 ng/ml to 10 ug/ml for 72 hours followed by MTT assay.
# (§4) The cells were plated onto a 96 well plate and treated with different concentrations of the compounds from 0.04 ng/ml to 400 ng/ml for 72 hours followed by MTT assay.
# PC3 cells [15] = assay: as above; assay type: cell-based; conditions: Homo sapiens, PC-3, 72 h, PC3, 72 hours
# Description: as §3, §4
# SK-BR-3 cells [16] = assay: as above; assay type: cell-based; conditions: Homo sapiens, SK-BR-3, 72 h
# Description: as §3, §4
# WI38 normal cell line [17] = assay: as above; assay type: cell-based; conditions: Homo sapiens, WI-38, 72 h, WI38, 72 hours
# Description: as §3, §4
# [18] = Example 6, 50-200 mg/kg, compared with control groups and aspirin
# [19] = 0.04 ng/ml to 400 ng/ml (Example 14)
# [20] = 1 ng/ml to 10 ug/ml (Example 8)
structure (smiles),measurement,setting,value
"CC(=O)Oc1ccccc1C(=O)O [Aspirin, acetylsalicylic acid]","Average rate, test compound","[1]; decomposition of test compound, 0-180 min",-1.57e-06 M/min
same,Test compound Rate,[1]; 0 min,0 M/min
same,Test compound Rate,[1]; 30 min,-1.4e-06 M/min
same,Test compound Rate,[1]; 60 min,-9.81e-07 M/min
same,Test compound Rate,[1]; 90 min,-2.32e-06 M/min
same,Test compound Rate,[1]; 120 min,-1.56e-06 M/min
same,Test compound Rate,[1]; 180 min,-1.58e-06 M/min
same,Test compound Concentration,[1]; 0 min,457 µM
same,Test compound Concentration,[1]; 30 min,415 µM
same,Test compound Concentration,[1]; 60 min,399 µM
same,Test compound Concentration,[1]; 90 min,248 µM
same,Test compound Concentration,[1]; 120 min,270 µM
same,Test compound Concentration,[1]; 180 min,174 µM
same,inhibition of cancer cell growth (in words),[2],did not seem to inhibit growth by any significant means
same,Tail flick latency / analgesic activity (in words),"[3]; Example 5, 100 and 200 mg/kg i.p., rats",significant increase in the tail flick latency
same,Tail flick latency time,"[3]; Example 6, 100 mg/kg, 0 min",1.64 ± 0.27 s
same,Tail flick latency time,"[3]; Example 6, 100 mg/kg, 30 min",3.28 ± 0.26 s
same,Tail flick latency time,"[3]; Example 6, 100 mg/kg, 60 min",3.28 ± 0.57 s
same,Tail flick latency time,"[3]; Example 6, 100 mg/kg, 90 min",2.88 ± 0.26 s
same,Tail flick latency time,"[3]; Example 6, 100 mg/kg, 120 min",2.73 ± 0.48 s
same,Tail flick latency time,"[3]; Example 6, 100 mg/kg, 180 min",2.05 ± 0.76 s
same,Tail flick latency time,"[3]; Example 6, 200 mg/kg, 0 min",2.32 ± 0.46 s
same,Tail flick latency time,"[3]; Example 6, 200 mg/kg, 30 min",3.46 ± 0.77 s
same,Tail flick latency time,"[3]; Example 6, 200 mg/kg, 60 min",3.46 ± 0.17 s
same,Tail flick latency time,"[3]; Example 6, 200 mg/kg, 90 min",3.03 ± 0.42 s
same,Tail flick latency time,"[3]; Example 6, 200 mg/kg, 120 min",3.12 ± 0.30 s
same,% MPE / analgesic activity in tail flick test (in words),[3]; [18],significantly more
same,Tail flick latency time,"[3]; Example 8 (in vivo), 100 mg/kg oral with food, 0 min",2.37 s
same,Tail flick latency time,"[3]; Example 8 (in vivo), 100 mg/kg oral with food, 30 min",2.75* seconds
same,Tail flick latency time,"[3]; Example 8 (in vivo), 100 mg/kg oral with food, 60 min",2.68 s
same,Tail flick latency time,"[3]; Example 8 (in vivo), 100 mg/kg oral with food, 90 min",2.57 s
same,Tail flick latency time,"[3]; Example 8 (in vivo), 100 mg/kg oral with food, 120 min",2.23 s
same,Tail flick latency time,"[3]; Example 8 (in vivo), 100 mg/kg oral with food, 180 min",2.37 s
same,Paw circumference,"[4]; Example 6, 100 mg/kg, 0 h",3.125 ± 0.13 mm
same,Paw circumference,"[4]; Example 6, 100 mg/kg, 1 h",3.475 ± 0.15 mm
same,Paw circumference,"[4]; Example 6, 100 mg/kg, 2 h",3.6 ± 0.14 mm
same,Paw circumference,"[4]; Example 6, 100 mg/kg, 3 h",3.475 ± 0.10 mm
same,Paw circumference,"[4]; Example 6, 200 mg/kg, 0 h",3.3 ± 0.18 mm
same,Paw circumference,"[4]; Example 6, 200 mg/kg, 1 h",3.425 ± 0.21 mm
same,Paw circumference,"[4]; Example 6, 200 mg/kg, 2 h",3.575 ± 0.13 mm
same,Paw circumference,"[4]; Example 6, 200 mg/kg, 3 h",3.55 ± 0.10 mm
same,% inhibition of paw edema (in words),[4]; [18],significantly inhibited the development of the edema
same,Paw circumference,"[4]; Example 8 (in vivo), 100 mg/kg oral with food, 0 h",3.4 mm
same,Paw circumference,"[4]; Example 8 (in vivo), 100 mg/kg oral with food, 1 h",3.82 mm
same,Paw circumference,"[4]; Example 8 (in vivo), 100 mg/kg oral with food, 2 h",3.58 mm
same,Paw circumference,"[4]; Example 8 (in vivo), 100 mg/kg oral with food, 3 h",3.67 mm
same,Percent inhibition of paw edema (Std. Error),[4]; 1 hr,55.44%
same,Percent inhibition of paw edema (Std. Error),[4]; 2 hr,79.16%
same,Percent inhibition of paw edema (Std. Error),[4]; 3 hr,75.29%
same,Aspirin solubility in water,[5],0.33 g/100 mL
same,IC50,"[6]; WI38, 24 hours",619 µM
same,IC50,"[6]; WI38, 48 hours",501 µM
same,IC50,"[7]; SKBR3, 24 hours",731 µM
same,IC50,"[7]; SKBR3, 48 hours",693 µM
same,IC50,"[8]; PC3, 24 hours",771 µM
same,IC50,"[8]; PC3, 48 hours",782 µM
same,IC50,"[9]; PANC1, 24 hours",975 µM
same,IC50,"[9]; PANC1, 48 hours",745 µM
"CC(=O)O[C@H]1C(=O)[C@@]2(C)[C@H]([C@H](OC(=O)c3ccccc3)[C@]3(O)C[C@H](OC(=O)[C@H](O)[C@@H](NC(=O)c4ccccc4)c4ccccc4)C(C)=C1C3(C)C)[C@]1(OC(C)=O)CO[C@@H]1C[C@@H]2O [Taxol, Paclitaxel]",EC50,PANC-1 cells [10],0.0328 µg/mL
same,EC50,PC3 cells [11],8.51 ng/mL
same,EC50,SK-BR-3 cells [12],0.0361 µg/mL
same,EC50,WI38 normal cell line [13],0.0379 µg/mL
same,GI50,PANC-1 cells [14]; [19],5.46 ng/mL
same,GI50,PANC-1 cells [14]; [20],1.8 ng/mL
same,GI50,PC3 cells [15]; [19],0.05 ng/mL
same,GI50,PC3 cells [15]; [20],258 ng/mL
same,GI50,SK-BR-3 cells [16]; [19],0.78 ng/mL
same,GI50,SK-BR-3 cells [16]; [20],1.15 ng/mL
same,GI50,WI38 normal cell line [17]; [19],0.0056 µg/mL
same,GI50,WI38 normal cell line [17]; [20],0.514 µg/mL
same,Effect on normal cell growth (WI-38) (in words),[6]; 48 hours,some effect on normal cell growth
same,IC50,"[6]; WI38, 24 hours",19.1 µM
same,IC50,"[6]; WI38, 48 hours",80 µM
same,IC50,"[7]; SKBR3, 24 hours",0.694 µM
same,IC50,"[7]; SKBR3, 48 hours",3.23 µM
same,IC50,"[8]; PC3, 24 hours",0.0581 µM
same,IC50,"[8]; PC3, 48 hours",0.0803 µM
same,inhibition,"[8]; PC-3, 48 hours, all concentrations",~60%
same,IC50,"[9]; PANC1, 24 hours",0.153 µM
same,IC50,"[9]; PANC1, 48 hours",0.18 µM
